Test results published in article PMC3441526, “KCN1, a Novel Synthetic Sulfonamide Anticancer Agent: In Vitro and In Vivo Anti-Pancreatic Cancer Activities and Preclinical Pharmacology” (PLoS ONE, 2012).

Columns and labels:
BxPC3 cells [1] = experiment: BrdUrd incorporation cell proliferation assay; type: cell-based; details: Homo sapiens, BXPC-3; BxPC3, 50 µM, 24 h
Description: (§1) The effect of KCN1 on cell proliferation was determined using the BrdUrd incorporation assay (Oncogene, La Jolla, CA) according to the manufacturer’s instructions, [47]. In brief, cells were seeded in 96-well plates (8 × 10^3 to 1.2 × 10^4 cells per well) and incubated with various concentrations of KCN1 (0, 5, 12.5 and 50 µM) for 24 h. BrdUrd was added to the medium 10 h before termination of the experiment. The BrdUrd incorporated into cells was determined by anti-BrdUrd antibody, and absorbance was measured at dual wavelengths of 450/540 nm using an OPTImax microplate reader (Molecular Devices; Sunnyvale, CA).

Mia Paca-2 cells [2] = experiment: BrdUrd incorporation cell proliferation assay; type: cell-based; details: Homo sapiens; Mia Paca-2, 50 µM, 24 h
Description: as §1

HPAC cells [3] = experiment: BrdUrd incorporation cell proliferation assay; type: cell-based; details: Homo sapiens, 24 h
Description: as §1

Panc-1 cells [4] = experiment: BrdUrd incorporation cell proliferation assay; type: cell-based; details: Homo sapiens; Panc-1, 50 µM, 24 h
Description: as §1

BxPC3 cells [5] = experiment: Cell cycle measurement by flow cytometry; type: cell-based, human; details: for cell cycle distribution, G1 / cell cycle distribution, G2/M / cell cycle distribution, S: 24 h
Description: (§2) To determine the effect of KCN1 on the cell cycle, cells (2–3×10^5) were exposed to the test compounds (0, 5, 12.5 or 50 µM) and incubated for 24 h prior to analysis. Cells were trypsinized, washed with PBS, and fixed in 1.5 mL of 95% ethanol at 4°C overnight, followed by incubation with RNAse and staining with propidium iodide (Sigma). The DNA content was determined by flow cytometry, [47].

HPAC cells [6] = experiment: Cell cycle measurement by flow cytometry; type: cell-based, human; details: 24 h
Description: as §2

Panc-1 cells [7] = experiment: Cell cycle measurement by flow cytometry; type: cell-based, human; details: for cell cycle distribution, G1 / cell cycle distribution, G2/M / cell cycle distribution, S: 24 h
Description: as §2

BxPC3 cells [8] = experiment: MTT cell survival assay; type: cell-based; details: Homo sapiens, BXPC-3
Description: (§3) The effect of the test compound on human pancreatic cancer cell viability, expressed as the percentage of cell survival, was determined using the MTT assay [45]–[47]. Cells were grown in 96-well plates at 4–5×10^3 cells per well and exposed to different concentrations of the test compound (0, 1, 5, 12.5, 25, 50 or 100 µM). After incubation for different times, 10 µL of the MTT solution (5 mg/mL; Sigma; St. Louis, MO) were added into each well. The plates were incubated for 2–4 hr at 37°C. The supernatant was then removed and the formazan crystals were dissolved with 100 µL of DMSO. The absorbance at 570 nm was recorded using an OPTImax microplate reader (Molecular Devices; Sunnyvale, CA). The cell survival percentages were calculated by dividing the mean optical density (OD) of compound-containing wells by that of DMSO-containing control wells. Three separate experiments were accomplished to determine the IC50 values.

Mia Paca-2 cells [9] = experiment: MTT cell survival assay; type: cell-based; details: Homo sapiens
Description: as §3

HPAC cells [10] = experiment: MTT cell survival assay; type: cell-based; details: Homo sapiens, 72 h
Description: as §3

Panc-1 cells [11] = experiment: MTT cell survival assay; type: cell-based; details: Homo sapiens
Description: as §3

BxPC3 cells [12] = experiment: Annexin V apoptosis assay; type: cell-based, human; details: BxPC3, 50 µM, 48 h
Description: (§4) Cells in early and late stages of apoptosis were detected using an Annexin V-FITC apoptosis detection kit from BioVision (Mountain View, CA), according the manufacturer’s protocol, [47]. In brief, 2–3×10^5 cells were exposed to various doses of the test compound KCN1 (0, 5, 12.5, 50 µM) and incubated for 48 h prior to analysis. The samples were analyzed using a Becton Dickinson FACSCalibur instrument (Ex = 488 nm; Em = 530 nm). Cells that were positive for Annexin V-FITC alone (early apoptosis) and Annexin V-FITC and PI (late apoptosis) were counted.

Mia Paca-2 cells [13] = experiment: Annexin V apoptosis assay; type: cell-based, human; details: Mia Paca-2, 50 µM, 48 h
Description: as §4

HPAC cells [14] = experiment: Annexin V apoptosis assay; type: cell-based, human; details: 50 µM, 48 h, against untreated control
Description: as §4

Panc-1 cells [15] = experiment: Annexin V apoptosis assay; type: cell-based, human; details: Panc-1, 50 µM, 48 h
Description: as §4

[16] = Pharmacokinetic study, faecal recovery and late detection (strain not stated); type: in vivo, mice; details: for initial dose of parental compound recovered in feces: mice
Description: Female CD-1 and nude mice were administered 35 mg/kg body weight of KCN1 as either a single intravenous injection via a tail vein or via an intraperitoneal injection. At selected time points after dosing, groups of three mice/time point were subjected to a retro-orbital bleed. The blood was collected into heparinized tubes, and plasma was separated by centrifugation. Tissues (brain, skeletal muscle, kidneys, liver, spleen, and heart) were collected by necropsy. Urine and feces were collected on ice for 24 h from mice housed in metabolic cages (n = 3/study). The collection containers and cages were washed twice with 0.9% saline solution, and each urine collection and each wash was analyzed separately, then values were added together for each mouse to determine the total KCN1 present in urine during the collection period. Pharmacokinetic values were derived using Phoenix WinNonlin Version 6.0 (Mountain View, CA).

COc1ccc(S(=O)(=O)N(Cc2ccc3c(c2)C=CC(C)(C)O3)c2ccccc2)cc1OC [KCN1, 3,4-dimethoxy-N-[(2,2-dimethyl-2H-chromen-6-yl)methyl]-N-phenylbenzenesulfonamide]
inhibition at 50 µM (BxPC3 cells [1]): ~88%
inhibition at 50 µM (Mia Paca-2 cells [2]): ~60%
inhibition at 50 µM (HPAC cells [3]): ~80%
inhibition at 50 µM (Panc-1 cells [4]): ~56%
cell cycle distribution, G1 (BxPC3 cells [5]; BXPC3, 5 µM): 52.9±4.1
cell cycle distribution, G2/M (BxPC3 cells [5]; BXPC3, 5 µM): 26.4±1.3
cell cycle distribution, S (BxPC3 cells [5]; BXPC3, 5 µM): 20.8±3.8
cell cycle distribution, G1 (BxPC3 cells [5]; BXPC3, 12.5 µM): 65.1±3.5
cell cycle distribution, G2/M (BxPC3 cells [5]; BXPC3, 12.5 µM): 17.4±1.9
cell cycle distribution, S (BxPC3 cells [5]; BXPC3, 12.5 µM): 17.5±2.1
cell cycle distribution, G1 (BxPC3 cells [5]; BXPC3, 50 µM): 70.8±2.0
cell cycle distribution, G2/M (BxPC3 cells [5]; BXPC3, 50 µM): 15.5±1.7
cell cycle distribution, S (BxPC3 cells [5]; BXPC3, 50 µM): 13.7±0.9
concentration at which G1 arrest begins (BxPC3 cells [5]; BxPC3, 24 h): 5 µM
cell cycle distribution, G1 (HPAC cells [6]; 5 µM): 62.1±4.9
cell cycle distribution, G2/M (HPAC cells [6]; 5 µM): 11.8±1.2
cell cycle distribution, S (HPAC cells [6]; 5 µM): 26.1±3.8
cell cycle distribution, G1 (HPAC cells [6]; 12.5 µM): 66.8±1.6
cell cycle distribution, G2/M (HPAC cells [6]; 12.5 µM): 10.9±1.3
cell cycle distribution, S (HPAC cells [6]; 12.5 µM): 22.4±1.6
cell cycle distribution, G1 (HPAC cells [6]; 50 µM): 68.8±2.7
cell cycle distribution, G2/M (HPAC cells [6]; 50 µM): 11.5±1.4
cell cycle distribution, S (HPAC cells [6]; 50 µM): 19.7±1.4
concentration at which G1 arrest begins (HPAC cells [6]): 5 µM
cell cycle distribution, G1 (Panc-1 cells [7]; Panc-1, 5 µM): 40.3±2.2
cell cycle distribution, G2/M (Panc-1 cells [7]; Panc-1, 5 µM): 30.9±0.8
cell cycle distribution, S (Panc-1 cells [7]; Panc-1, 5 µM): 28.8±3.2
cell cycle distribution, G1 (Panc-1 cells [7]; Panc-1, 12.5 µM): 49.8±0.8
cell cycle distribution, G2/M (Panc-1 cells [7]; Panc-1, 12.5 µM): 28.8±1.6
cell cycle distribution, S (Panc-1 cells [7]; Panc-1, 12.5 µM): 21.4±0.9
cell cycle distribution, G1 (Panc-1 cells [7]; Panc-1, 50 µM): 53.3±2.3
cell cycle distribution, G2/M (Panc-1 cells [7]; Panc-1, 50 µM): 29.1±1.4
cell cycle distribution, S (Panc-1 cells [7]; Panc-1, 50 µM): 17.6±0.9
concentration at which G1 arrest begins (Panc-1 cells [7]; Panc-1, 24 h): 12.5 µM
inhibition at 100 µM (BxPC3 cells [8]; BxPC3, 100 µM, 72 h, read-out: inhibition of cell growth): 81%
IC50 (BxPC3 cells [8]; BxPC3, 72 h, MTT, read-out: Cytotoxicity: IC50): 14.62 ± 0.1 µM
inhibition at 100 µM (Mia Paca-2 cells [9]; Mia Paca-2, 100 µM, 72 h, read-out: inhibition of cell growth): 61%
IC50 (Mia Paca-2 cells [9]; Mia Paca-2, 72 h, MTT, read-out: Cytotoxicity: IC50): 69.9 ± 2.12 µM
inhibition at 100 µM (HPAC cells [10]; 100 µM, read-out: inhibition of cell growth): 83%
IC50 (HPAC cells [10]; MTT, read-out: Cytotoxicity: IC50): 17.91 ± 0.12 µM
inhibition at 100 µM (Panc-1 cells [11]; Panc-1, 100 µM, 72 h, read-out: inhibition of cell growth): 53%
IC50 (Panc-1 cells [11]; Panc-1, 72 h, MTT, read-out: Cytotoxicity: IC50): 100 ± 2.35 µM
apoptotic activity (BxPC3 cells [12]): no detectable apoptotic activity
apoptotic activity (Mia Paca-2 cells [13]): no detectable apoptotic activity
apoptotic index (HPAC cells [14]): 1.4 fold
apoptotic activity (Panc-1 cells [15]): no detectable apoptotic activity
time still detectable at a low level ([16]; after intraperitoneal dosing (data not shown)): at least five days
initial dose of parental compound recovered in feces ([16]; I.P. injection (data not shown)): Approximately 1%
initial dose of parental compound recovered in feces ([16]; I.V. injection (data not shown)): less than 1%
